Assay results published in the supplement of paper PMC10307832.

Columns and labels:
Experiment in all cases: relative viability (nuclei count vs DMSO), 5 days (fraction); higher = more cells survive
NCI-H2085 = settings: first compound 0.5 µM
Procedure, shortened: (§1)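 For relative viability, nuclei counts in treated wells were divided by those in vehicle wells. Lung cancer cell lines had been pin-tool dosed in 1536-well plates the day after seeding and cultured for 5 days, then fixed and stained in one step (final 0.05% Triton X-100, 1% formaldehyde, 1 ug/ml Hoechst) and imaged at 4×. Doses were one drug alone or a fixed anchor-drug dose plus five library-drug doses (not always all listed) in √10 steps, and values are duplicate-plate medians.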

COR-L23 = test system: COR-L23
Procedure, shortened: as §1

NCI-H1793 = test system: NCI-H1793
Procedure, shortened: as §1

NCI-H1993 = test system: NCI-H1993
Procedure, shortened: as §1

NCI-H3122 = test system: NCI-H3122
Procedure, shortened: as §1

NCI-H2023 = test system: NCI-H2023
Procedure, shortened: as §1

NCI-H1650 = test system: NCI-H1650
Procedure, shortened: as §1

PC-14 = test system: PC-14
Procedure, shortened: as §1

NCI-H2347 = test system: NCI-H2347
Procedure, shortened: as §1

HCC-44 = test system: HCC-44
Procedure, shortened: as §1

SW 900 = test system: SW 900
Procedure, shortened: as §1

NCI-H520 = test system: NCI-H520
Procedure, shortened: as §1

EPLC-272H = test system: EPLC-272H
Procedure, shortened: as §1

CC1(C)CCC(c2ccc(Cl)cc2)=C(CN2CCN(c3ccc(C(=O)NS(=O)(=O)c4ccc(N[C@H](CCN5CCOCC5)CSc5ccccc5)c(S(=O)(=O)C(F)(F)F)c4)cc3)CC2)C1 [Navitoclax] + COc1cccc2cc(-c3nc([C@H]4CC[C@H](C(=O)O)CC4)n4ncnc(N)c34)[nH]c12 [OSI-027] (partner 0.5 µM) gave a relative viability (NCI-H2085) of 0.757, a relative viability (COR-L23; first compound 0.005 µM) of 0.839 and a relative viability (COR-L23; first compound 0.01581 µM) of 0.814. It also gave a relative viability (COR-L23; first compound 0.05 µM) of 0.877, a relative viability (COR-L23; first compound 0.1581 µM) of 0.785 and a relative viability (COR-L23; first compound 0.5 µM) of 0.779. For the same molecule, the relative viability (NCI-H1793; first compound 0.005 µM) was 0.267, the relative viability (NCI-H1793; first compound 0.01581 µM) was 0.414 and the relative viability (NCI-H1793; first compound 0.1581 µM) was 0.273. The relative viability (NCI-H1793; first compound 0.5 µM) was 0.261, the relative viability (NCI-H1993; first compound 0.005 µM) was 0.566 and the relative viability (NCI-H1993; first compound 0.01581 µM) was 0.523. It also gave a relative viability (NCI-H1993; first compound 0.05 µM) of 0.551, a relative viability (NCI-H1993; first compound 0.1581 µM) of 0.523 and a relative viability (NCI-H1993; first compound 0.5 µM) of 0.607. For the same molecule, the relative viability (NCI-H3122; first compound 0.005 µM) was 0.98, the relative viability (NCI-H3122; first compound 0.01581 µM) was 0.949 and the relative viability (NCI-H3122; first compound 0.05 µM) was 1.04. The relative viability (NCI-H3122; first compound 0.1581 µM) was 0.902, the relative viability (NCI-H3122; first compound 0.5 µM) was 0.978 and the relative viability (NCI-H2023; first compound 0.005 µM) was 0.405. It also gave a relative viability (NCI-H2023; first compound 0.01581 µM) of 0.446, a relative viability (NCI-H2023; first compound 0.05 µM) of 0.338 and a relative viability (NCI-H2023; first compound 0.1581 µM) of 0.38. It also gave a relative viability (NCI-H2023; first compound 0.5 µM) of 0.416, a relative viability (NCI-H1650; first compound 0.005 µM) of 0.601 and a relative viability (NCI-H1650; first compound 0.01581 µM) of 1. For the same molecule, the relative viability (NCI-H1650; first compound 0.05 µM) was 0.698, the relative viability (NCI-H1650; first compound 0.1581 µM) was 0.526 and the relative viability (NCI-H1650; first compound 0.5 µM) was 0.445. For the same molecule, the relative viability (PC-14; first compound 0.005 µM) was 0.735, the relative viability (PC-14; first compound 0.01581 µM) was 1.12 and the relative viability (PC-14; first compound 0.05 µM) was 0.767. It also gave a relative viability (PC-14; first compound 0.1581 µM) of 0.842, a relative viability (PC-14; first compound 0.5 µM) of 0.748 and a relative viability (NCI-H2347; first compound 0.005 µM) of 0.485. It also gave a relative viability (NCI-H2347; first compound 0.01581 µM) of 0.451, a relative viability (NCI-H2347; first compound 0.1581 µM) of 0.293 and a relative viability (NCI-H2347; first compound 0.5 µM) of 0.401. It also gave a relative viability (HCC-44; first compound 0.05 µM) of 0.627, a relative viability (HCC-44; first compound 0.5 µM) of 0.404 and a relative viability (SW 900; first compound 0.005 µM) of 0.497. For the same molecule, the relative viability (SW 900; first compound 0.01581 µM) was 0.681, the relative viability (SW 900; first compound 0.05 µM) was 0.534 and the relative viability (SW 900; first compound 0.1581 µM) was 0.395. For the same molecule, the relative viability (SW 900; first compound 0.5 µM) was 0.546, the relative viability (NCI-H520; first compound 0.01581 µM) was 0.231 and the relative viability (NCI-H520; first compound 0.05 µM) was 0.318. It also gave a relative viability (NCI-H520; first compound 0.1581 µM) of 0.201, a relative viability (NCI-H520; first compound 0.5 µM) of 0.31 and a relative viability (EPLC-272H; first compound 0.005 µM) of 0.296. For the same molecule, the relative viability (EPLC-272H; first compound 0.05 µM) was 0.323, the relative viability (EPLC-272H; first compound 0.1581 µM) was 0.317 and the relative viability (EPLC-272H; first compound 0.5 µM) was 0.3.
